From PMC11439058, “Exploiting the bile acid binding protein as transporter of a Cholic Acid/Mirin bioconjugate for potential applications in liver cancer therapy” (Scientific Reports, 2024)
Several values for one entry are separate records, joined by “and”; a condition that tells them apart may be missing. Equal entries are not always repeated. Where two headings read alike, the source gives them in different places.

Assays:
in vitro [1] = assay: in vitro
Method: (§1) Plasma Stability and stability in the cellular medium. A DMSO stock solution of tested compounds was incubated in the presence of human plasma ([…]) and HEPES buffer (25 mM, 140 mM NaCl, pH 7.4) or DMEM 10% FBS, (1% PS, and 1% Glu) at 37 °C under shaking. At selected time points (0, 0.083, 0.25, 0.5, 1, 2, 8, 24 h), samples were treated with cold ACN to stop reactions through protein denaturation, and centrifuged at 5000 rpm for 10 min. The supernatant was analyzed by UV/LC-MS to monitor the amount of unmodified compound. Data were calculated with Excel and plotted using GraphPad Prism 8.0 (GraphPad Software Inc., San Diego, CA, USA). The half-life value (t1/2) was calculated with the following formula: [drawing 2]

[2] = tested on: Salmonella typhimurium strain TA98; assay: Mutagenicity assay: Ames test, TA98; conditions: for concentration from which a mutagenic effect is shown: Salmonella typhimurium, 90 min
Method: (§2) Mutagenicity assay: Ames test. The TA100 and TA98 strains of Salmonella Typhimurium were utilized for mutagenicity assay. Approximately 107 bacteria were exposed to 6 concentrations of each test compound, as well as a positive and a negative control, for 90 min in a medium containing sufficient histidine to support approximately two cell divisions. After 90 min, the exposure cultures were diluted in pH indicator medium lacking histidine, and aliquoted into 48 wells of a 384-well plate. Within two days, cells which had undergone the reversion to His grew into colonies. Metabolism by the bacterial colonies reduced the pH of the medium, changing the color of that well. This color change can be detected visually or by a microplate reader. The number of wells containing revertant colonies were counted for each dose and compared to a zero-dose control. Each dose was tested in six replicates. The following concentrations of Mirin and CA-M11 were tested: 5; 10; 30; 50; 80 and 100 µM. The concentration values tested of Doxorubicin were: 0.3; 1.2; 1.8; 3.0; 6.0 and 30 µM. The experiments were then repeated adding to Doxorubicin concentrations ranging from 0.3 to 30 µM, respectively, Mirin 5 µM and CA-M11 5 µM.

[3] = Extraction recovery from denatured microsomes (matrix effect); conditions: human, Recovery (% Rec, Time 0'), denatured human liver microsomes
From the text: Therefore, matrix effects were investigated by preparing fresh time-zero solutions made of denatured microsomes, solvent mix and tested compounds. To have a better correlation with the time-zero of the metabolic stability experiments, final volumes and concentrations used were not modified.
Extraction Recovery % (% Rec) of CA-M11 and Mirin in human liver microsomes. Data are reported as the mean ± standard deviation (SD) of n=3 experiments run in triplicates.

PAMPA assay = format: in vitro ADME; conditions: 4 h, rt
Method: PAMPA assay. The DMSO stock solution of each compound was diluted 1:1 v/v with phosphate buffer (PBS 10 mM, pH 7.4) to obtain donor solutions. Each well of the filter plate was covered with a 1% w/v L-α-phosphatidylcholine solution (PC) in dodecane used to mimic the phospholipidic bilayer and then added with the donor. In the acceptor plate, a mixture solution of DMSO/PBS 1:1 v/v was placed, and the sandwich was incubated at rt for 4 h under gentle shaking. At the end time point, samples were taken from both the upper and the lower plates and analyzed using the UV/LC-MS method described above. Apparent permeability (Papp cm/s x 10^−6) and membrane retention (MR %) was calculated as previously reported.

HepG2 cells = assay: HepG2 cytotoxicity, Neutral Red Uptake; format: cell-based, Human
Method: (§3) Cell cultures and cytotoxicity assay. To evaluate the in vitro cytotoxicity of the test samples, the direct contact tests, proposed by ISO […], Biological evaluation of medical devices – Part 5: Tests for cytotoxicity: in vitro methods were used[71]. This test is suitable for sample with various shapes, sizes, or physical status (i.e. liquid or solid).
(§4) Evaluation of HepG2 viability. Cells were maintained in DMEM at 37 °C in a humidified atmosphere containing 5% CO2. The culture medium was supplemented with 10% fetal calf serum (FCS), 1% L-glutamine-penicillin-streptomycin solution, and 1% MEM Non-Essential Amino Acid Solution. Once at confluence, cells were washed with PBS 0.1 M, taken up with trypsin-EDTA solution and then centrifuged at 1000 rpm for 5 min. The pellet was re-suspended in medium solution (dilution 1:15).
(§5) The stock solutions of Mirin, Doxorubicin, and CA-M11 were prepared in DMSO. The following concentrations of Mirin and CA-M11 were tested: 5; 10; 20; 30; 40; 50; 60; 70; 80; 90 and 100 µM. […] Then, the experiments were repeated adding to Doxorubicin concentrations ranging from 0.3 to 6.0 µM, respectively, Mirin 5 µM, and CA-M11 5 µM. […] Each experiment was repeated 3 times, and all samples were set up in six replicates. A complete medium was used as negative control. […] At the end of the incubation, the routine culture medium was removed from each well, and cells were carefully rinsed with 1 mL of pre-warmed D-PBS. Multiwells were then gently blotted with paper towels. […] The cells were checked during the NR incubation for NR crystal formation. After incubation, the NR Medium was removed, cells were carefully rinsed with 1 mL of pre-warmed D-PBS. Then, the PBS was decanted and blotted from the wells and exactly 1 mL of NR Desorb solution was added to each sample. […] During this step the samples were covered in order to protect them from light. After 5 min from the plate shaker removal the absorbance was read at 540 nm by a UV/visible spectrophotometer (UV5, Mettler Toledo).

[4] = HepG2 cytotoxicity, Neutral Red Uptake; format: cell-based, Human; conditions: human
Method: as §3, §4, §5

in vitro [5] = assay: in vitro; remark: listed apart in the source
Method: as §1

[6] = tested on: Salmonella typhimurium strain TA100; assay: Mutagenicity assay: Ames test, TA100; conditions: for concentration from which a mutagenic effect is shown: Salmonella typhimurium, 90 min
Method: as §2

[7] = Microsomal (metabolic) stability; format: in vitro ADME; conditions: human liver microsomes
Method: Microsomal stability. In the presence of phosphate buffer (PBS 10 mM, pH 7.4), human liver microsomes (HLM) (0.2 mg mL^−1), and a NADPH solution in MgCl2 48 mM, each DMSO compound solution was incubated at 37 °C for 1 h under shaking. Then, the metabolizing reactions were stopped by adding cold acetonitrile (ACN). After centrifuging and drying the reaction mixes under N2 flow, the quantitative analyses were performed using the UV/LC-MS method previously described. The percentages of the metabolized and unmetabolized compounds were calculated as previously described[73],[74].

SMILES: C[C@H](CCC(=O)Oc1ccc(/C=C2\SC(=N)NC2=O)cc1)[C@H]1CCC2C3C(C[C@H](O)[C@@]21C)[C@@]1(C)CC[C@@H](O)CC1C[C@H]3O (stereo partly drawn) [CA-M11, (4R)-4-((Z)-(2-Imino-4-oxothiazolidin-5-ylidene)methyl)phenyl 4-((3R,7R,10 S,12 S,13R,17R)-3,7,12-trihydroxy-10,13-dimethylhexadecahydro-1 H-cyclopenta[a]phenanthren-17-yl)pentanoate]
- Plasma stability (% ± SD) (in vitro [1]; human, 0 h, pH 7.4): 72.79 ± 2.57%
- Plasma stability (% ± SD) (in vitro [1]; human, 0.083 h, pH 7.4): 74.01 ± 0.65%
- Plasma stability (% ± SD) (in vitro [1]; human, 0.25 h, pH 7.4): 72.29 ± 3.22%
- Plasma stability (% ± SD) (in vitro [1]; human, 0.5 h, pH 7.4): 75.47 ± 0.04%
- compound hydrolyzed by plasmatic esterases (in vitro [1]; human, pH 7.4): Approximately 30%
- half-life (in vitro [1]; human, plasma, pH 7.4, t 1/2 (half-life) in plasma): ~1080 min
- concentration from which a mutagenic effect is shown [2]: ≥ 10 µM
- recovery at 0 min [3]: < 70%
- Membrane retention MR (%) (PAMPA assay): 2.26 ± 0.64%
- cytotoxic effect on HepG2 cells at 5 µM (HepG2 cells): does not exert a significant cytotoxic effect
- increase of cell death in combination with Doxorubicin (HepG2 cells; 5 µM compound + Doxorubicin 2.4 µM, HepG2, 24 h): roughly 40%
- IC50 at 24 h [4]: 40 µM
- DMEM cell culture medium stability (% ± SD) (in vitro [5]; 0 h): 93.96 ± 5.76%
- DMEM cell culture medium stability (% ± SD) (in vitro [5]; 0.083 h): 91.94 ± 0.85%
- DMEM cell culture medium stability (% ± SD) (in vitro [5]; 0.25 h): 94.24 ± 0.37%
- DMEM cell culture medium stability (% ± SD) (in vitro [5]; 0.5 h): 94.77 ± 0.60%
- DMEM cell culture medium stability (% ± SD) (in vitro [5]; 1 h): 92.08 ± 2.15%
- DMEM cell culture medium stability (% ± SD) (in vitro [5]; 2 h): 82.83 ± 3.38%
- half-life (in vitro [5]; buffer): 0.904 days
- concentration from which a mutagenic effect is shown [6]: ≥ 10 µM

SMILES: COc1cccc2c1C(=O)c1c(O)c3c(c(O)c1C2=O)C[C@@](O)(C(=O)CO)C[C@@H]3O[C@H]1C[C@H](N)[C@H](O)[C@H](C)O1 [Doxorubicin]
- concentration from which a mutagenic effect is shown [2]: ≥ 10 µM
- viability at 24 h, 0.3 µM ([4]; HepG2 cells, Doxorubicin 0.3 µM, 24 h, read-out: Percentage of viable HepG2 cells): 84.7%
- viability at 24 h, 0.6 µM ([4]; HepG2 cells, Doxorubicin 0.6 µM, 24 h, read-out: Percentage of viable HepG2 cells): 73.4%
- viability at 24 h, 1.2 µM ([4]; HepG2 cells, Doxorubicin 1.2 µM, 24 h, read-out: Percentage of viable HepG2 cells): 65%
- viability at 24 h, 1.8 µM ([4]; HepG2 cells, Doxorubicin 1.8 µM, 24 h, read-out: Percentage of viable HepG2 cells): 49.9%
- viability at 24 h, 2.4 µM ([4]; HepG2 cells, Doxorubicin 2.4 µM, 24 h, read-out: Percentage of viable HepG2 cells): 38.4%
- viability at 24 h, 3 µM ([4]; HepG2 cells, Doxorubicin 3.0 µM, 24 h, read-out: Percentage of viable HepG2 cells): 28.3%
- viability at 24 h, 6 µM ([4]; HepG2 cells, Doxorubicin 6.0 µM, 24 h, read-out: Percentage of viable HepG2 cells): 18.9%
- viability at 24 h, 12 µM ([4]; HepG2 cells, Doxorubicin 12.0 µM, 24 h, read-out: Percentage of viable HepG2 cells): 5.8%
- IC50 at 24 h ([4]; HepG2 cells, HepG2, 24 h, Neutral Red Uptake, read-out: IC50 (cytotoxic effect)): 1.8 µM
- concentration from which a mutagenic effect is shown [6]: ≥ 10 µM

SMILES: [H]/N=C1/NC(=O)C(=Cc2ccc(O)cc2)S1 [Mirin, (Z)-5-(4-Hydroxybenzylidene)-2-iminothiazolidin-4-one]
- Plasma stability (% ± SD) (in vitro [1]; human plasma, time 0 h): 89.10 ± 1.03%
- Plasma stability (% ± SD) (in vitro [1]; human plasma, time 0.083 h): 90.80 ± 0.13%
- Plasma stability (% ± SD) (in vitro [1]; human plasma, time 0.25 h): 92.18 ± 1.34%
- Plasma stability (% ± SD) (in vitro [1]; human plasma, time 0.5 h): 88.72 ± 3.98%
- Plasma stability (% ± SD) (in vitro [1]; human plasma, time 1 h): 89.70 ± 2.23%
- Plasma stability (% ± SD) (in vitro [1]; human plasma, time 2 h): 84.51 ± 2.93%
- Plasma stability (% ± SD) (in vitro [1]; human plasma, time 8 h): 83.07 ± 2.40%
- Plasma stability (% ± SD) (in vitro [1]; human plasma, time 24 h): 77.94% and 77.94 ± 2.30%
- percentage of unmodified compound in plasma (in vitro [1]; human plasma, up to 8 h of incubation): ≥ 80%
- effect on Doxorubicin mutagenicity ([2]; 5 µM compound + Doxorubicin 0.3 to 30 µM, TA98): not able to affect Doxorubicin mutagenicity
- recovery at 0 min [3]: 92.3 ± 1.92%
- Metabolic stability (%) ([7]; time 0 min): 92.32 ± 1.93%
- Metabolic stability (%) ([7]; time 60 min): 90.65 ± 0.83%
- Membrane retention MR (%) (PAMPA assay): 1.16 ± 0.90%
- IC50 at 24 h ([4]; HepG2, 24 h, Neutral Red Uptake, read-out: IC50 (cytotoxic effect)): 50 µM
- half-life (in vitro [5]): > 4.17 days
- stability percentage in DMEM cell culture medium (in vitro [5]; DMEM 10% FBS, all time points up to 24 h): above 90%
- DMEM cell culture medium stability (% ± SD) (in vitro [5]; DMEM 10% FBS, time 0 h): 104.19 ± 1.20%
- DMEM cell culture medium stability (% ± SD) (in vitro [5]; DMEM 10% FBS, time 0.083 h): 106.18 ± 0.16%
- DMEM cell culture medium stability (% ± SD) (in vitro [5]; DMEM 10% FBS, time 0.25 h): 107.78 ± 1.57%
- DMEM cell culture medium stability (% ± SD) (in vitro [5]; DMEM 10% FBS, time 0.5 h): 103.73 ± 2.61%
- DMEM cell culture medium stability (% ± SD) (in vitro [5]; DMEM 10% FBS, time 1 h): 104.88 ± 6.37%
- DMEM cell culture medium stability (% ± SD) (in vitro [5]; DMEM 10% FBS, time 2 h): 98.81 ± 3.43%
- DMEM cell culture medium stability (% ± SD) (in vitro [5]; DMEM 10% FBS, time 8 h): 97.14 ± 2.81%
- DMEM cell culture medium stability (% ± SD) (in vitro [5]; DMEM 10% FBS, time 24 h): 91.14 ± 2.70%
- half-life (in vitro [5]; buffer): 4.73 days
- effect on Doxorubicin mutagenicity ([6]; 5 µM compound + Doxorubicin 0.3 to 30 µM, TA100): not able to affect Doxorubicin mutagenicity
